Assay results: US10065956B2, “Ethynyl derivatives” (Hoffmann-La Roche Inc., priority 2015, dated 2018)

Biological target: T1, human mGlu4 receptor (Homo sapiens, UniProt Q14833)
T1 construct: expressed in transfected cells; host or cells: monoclonal HEK-293 cell line, stably transfected
Experiment: Ca2+ mobilization in vitro assay on recombinant human mGlu4 expressed in HEK293 cells (PAM, L-AP4 at EC20)
Assay type: cell-based
Settings: for Emax: HEK293, maximal response in % of the maximal stimulatory effect obtained with saturating concentrations of L-AP4, read-out: Eff. (%); for EC50: HEK293 cells expressing human mGlu4, L-AP4 added at EC20
Excerpt: FIG. 1: Illustration of the experimental outline for mGlu4 PAM Ca2+ mobilization screening assay and the determination of EC50 and % Emax values.
Determination of EC50 Values Using a Ca2+ Mobilization In Vitro Assay on Recombinant Human mGlu4 Expressed in HEK293 Cells:
A monoclonal HEK-293 cell line stably transfected with a cDNA encoding for the human mGlu4 receptor was generated; for the work with mGlu4 Positive Allosteric Modulators (PAMs), a cell line with low receptor expression levels and low constitutive receptor activity was selected to allow the differentiation of agonistic versus PAM activity. Cells were cultured according to standard protocols (Freshney, 2000) in Dulbecco's Modified Eagle Medium with high glucose supplemented with 1 mM glutamine, 10% (vol/vol) heat-inactivated bovine calf serum, Penicillin/Streptomycin, 50 μg/ml hygromycin and 15 μg/ml blasticidin (all cell culture reagents and antibiotics from Invitrogen, Basel, Switzerland).
About 24 hrs before an experiment, 5×10^4 cells/well were seeded in poly-D-lysine coated, black/clear-bottomed 96-well plates. The cells were loaded with 2.5 μM Fluo-4AM in loading buffer (1×HBSS, 20 mM HEPES) for 1 hr at 37° C. and washed five times with loading buffer. The cells were transferred into a Functional Drug Screening System 7000 (Hamamatsu, Paris, France), and 11 half logarithmic serial dilutions of test compound at 37° C. were added and the cells were incubated for 10-30 min. with on-line recording of fluorescence. Following this pre-incubation step, the agonist (2S)-2-amino-4-phosphonobutanoic acid (L-AP4) was added to the cells at a concentration corresponding to EC20 with on-line recording of fluorescence; in order to account for day-to-day variations in the responsiveness of cells, the EC20 of L-AP4 was determined immediately ahead of each experiment by recording of a full dose-response curve of L-AP4. Responses were measured as peak increase in fluorescence minus basal (i.e. fluorescence without addition of L-AP4), normalized to the maximal stimulatory effect obtained with saturating concentrations of L-AP4. Graphs were plotted with the % maximal stimulatory using XLfit, a curve fitting program that iteratively plots the data using Levenburg Marquardt algorithm. The single site competition analysis equation used was y=A+((B−A)/(1+((x/C)D))), where y is the % maximal stimulatory effect, A is the minimum y, B is the maximum y, C is the EC50, x is the log 10 of the concentration of the competing compound and D is the slope of the curve (the Hill Coefficient). From these curves the EC50 (drug concentration at which 50% of the maximal receptor activation was achieved), the Hill coefficient as well as the maximal response in % of the maximal stimulatory effect obtained with saturating concentrations of L-AP4 were calculated (see FIG. 1). […] A depression of the signal observed after addition of the EC20 concentration of L-AP4 was indicative of an inhibitory activity of the test compound.

T1 sequence (Q14833 33-912): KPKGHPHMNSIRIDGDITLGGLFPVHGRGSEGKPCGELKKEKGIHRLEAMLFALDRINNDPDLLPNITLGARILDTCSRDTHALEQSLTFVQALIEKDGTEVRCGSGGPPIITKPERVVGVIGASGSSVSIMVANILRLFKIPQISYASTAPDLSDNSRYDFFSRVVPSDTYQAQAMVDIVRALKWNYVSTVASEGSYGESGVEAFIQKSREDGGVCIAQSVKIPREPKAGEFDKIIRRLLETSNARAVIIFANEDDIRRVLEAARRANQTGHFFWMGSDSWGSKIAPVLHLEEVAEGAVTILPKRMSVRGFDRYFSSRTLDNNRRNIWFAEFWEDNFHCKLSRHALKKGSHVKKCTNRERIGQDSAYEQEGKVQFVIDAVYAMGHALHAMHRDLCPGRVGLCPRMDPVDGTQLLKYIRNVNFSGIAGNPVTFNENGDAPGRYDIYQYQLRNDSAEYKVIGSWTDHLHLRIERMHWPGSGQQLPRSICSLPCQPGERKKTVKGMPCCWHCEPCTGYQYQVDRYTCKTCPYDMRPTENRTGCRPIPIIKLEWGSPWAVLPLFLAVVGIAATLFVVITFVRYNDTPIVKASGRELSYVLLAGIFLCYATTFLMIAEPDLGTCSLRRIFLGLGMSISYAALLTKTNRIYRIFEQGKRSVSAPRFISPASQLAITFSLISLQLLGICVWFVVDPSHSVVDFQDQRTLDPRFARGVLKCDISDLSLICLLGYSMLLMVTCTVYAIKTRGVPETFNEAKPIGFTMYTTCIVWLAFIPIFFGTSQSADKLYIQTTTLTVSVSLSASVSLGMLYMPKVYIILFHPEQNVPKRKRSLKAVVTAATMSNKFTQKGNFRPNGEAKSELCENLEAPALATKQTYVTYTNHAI

SMILES: CN1C(=O)N(c2c(F)cc(C#Cc3ccccc3)cc2F)C(=O)C[C@@]1(C)c1cnn[nH]1 [Example 32, (6S)-3-[2,6-Difluoro-4-(2-phenylethynyl)phenyl]-1,6-dimethyl-6-(1H-triazol-5-yl)hexahydropyrimidine-2,4-dione]
- Emax: 114%
- EC50: 20 nM

SMILES: CN1C(=O)N(c2c(F)cc(C#Cc3ccccc3)cc2F)C(=O)C[C@@]1(C)c1cnn(CCCO)c1 [Example 22, (6S)-3-[2,6-Difluoro-4-(2-phenylethynyl)phenyl]-6-[1-(3-hydroxypropyl)pyrazol-4-yl]-1,6-dimethyl-hexahydropyrimidine-2,4-dione]
- Emax: 143%
- EC50: 56 nM

SMILES: COCCCn1cc([C@]2(C)CC(=O)N(c3c(F)cc(C#Cc4ccccc4)cc3F)C(=O)N2C)cn1 [Example 21, (6S)-3-[2,6-Difluoro-4-(2-phenylethynyl)phenyl]-6-[1-(3-methoxypropyl)pyrazol-4-yl]-1,6-dimethyl-hexahydropyrimidine-2,4-dione]
- Emax: 136%
- EC50: 70 nM

SMILES: CN1C(=O)N(c2c(F)cc(C#Cc3ccccc3)cc2F)C(=O)C[C@@]1(C)c1cncn1C [Example 11, (6S)-3-[2,6-Difluoro-4-(2-phenylethynyl)phenyl]-1,6-dimethyl-6-(3-methylimidazol-4-yl)hexahydropyrimidine-2,4-dione]
- Emax: 91%
- EC50: 59 nM

SMILES: CC(C)n1cc([C@]2(C)CC(=O)N(c3c(F)cc(C#Cc4ccccc4)cc3F)C(=O)N2C)cn1 [Example 19, (6S)-3-[2,6-Difluoro-4-(2-phenylethynyl)phenyl]-6-(1-isopropylpyrazol-4-yl)-1,6-dimethyl-hexahydropyrimidine-2,4-dione]
- Emax: 139%
- EC50: 36 nM

SMILES: CN1C(=O)N(c2c(F)cc(C#Cc3ccccc3F)cc2F)C(=O)C[C@@]1(C)c1cn[nH]c1 [Example 53, (6S)-3-[2,6-Difluoro-4-[2-(2-fluorophenyl)ethynyl]phenyl]-1,6-dimethyl-6-(1H-pyrazol-4-yl)hexahydropyrimidine-2,4-dione]
- Emax: 145%
- EC50: 17 nM

SMILES: CC[C@@]1(c2cn[nH]c2)CC(=O)N(c2c(F)cc(C#Cc3cccnc3)cc2F)C(=O)N1C [Example 51, (6S)-3-[2,6-Difluoro-4-[2-(3-pyridyl)ethynyl]phenyl]-6-ethyl-1-methyl-6-(1H-pyrazol-4-yl)hexahydropyrimidine-2,4-dione]
- Emax: 136%
- EC50: 45 nM

SMILES: CN1C(=O)N(c2c(F)cc(C#Cc3ccccc3)cc2F)C(=O)C[C@@]1(C)c1nn(C)c2ccccc12 [Example 8, (6S)-3-[2,6-Difluoro-4-(2-phenylethynyl)phenyl]-1,6-dimethyl-6-(1-methylindazol-3-yl)hexahydropyrimidine-2,4-dione]
- Emax: 99%
- EC50: 157 nM

SMILES: CN1C(=O)N(c2c(F)cc(C#Cc3ccc(F)cc3)cc2F)C(=O)C[C@@]1(C)c1cn[nH]c1 [Example 54, (6S)-3-[2,6-Difluoro-4-[2-(4-fluorophenyl)ethynyl]phenyl]-1,6-dimethyl-6-(1H-pyrazol-4-yl)hexahydropyrimidine-2,4-dione]
- Emax: 135%
- EC50: 27 nM

SMILES: CCn1ccc([C@]2(C)CC(=O)N(c3c(F)cc(C#Cc4ccccc4)cc3F)C(=O)N2C)n1 [Example 28, (6S)-3-[2,6-Difluoro-4-(2-phenylethynyl)phenyl]-6-(1-ethylpyrazol-3-yl)-1,6-dimethyl-hexahydropyrimidine-2,4-dione]
- Emax: 139%
- EC50: 96 nM

SMILES: CN1C(=O)N(c2c(F)cc(C#Cc3ccccc3)cc2F)C(=O)C[C@@]1(C)c1cnn(CC(C)(C)O)c1 [Example 60, (6S)-3-[2,6-Difluoro-4-(2-phenylethynyl)phenyl]-6-[1-(2-hydroxy-2-methyl-propyl)pyrazol-4-yl]-1,6-dimethyl-hexahydropyrimidine-2,4-dione]
- Emax: 142%
- EC50: 47 nM

SMILES: CN1C(=O)N(c2c(F)cc(C#Cc3ccccc3)cc2F)C(=O)C[C@@]1(C)c1cnn(CC2COC2)c1 [Example 61, (6S)-3-[2,6-Difluoro-4-(2-phenylethynyl)phenyl]-1,6-dimethyl-6-[1-(oxetan-3-ylmethyl)pyrazol-4-yl]hexahydropyrimidine-2,4-dione]
- Emax: 110%
- EC50: 63 nM

SMILES: CN1C(=O)N(c2c(F)cc(C#Cc3ccccc3)cc2F)C(=O)C[C@@]1(C)c1ccsn1 [Example 38, (6S)-3-[2,6-Difluoro-4-(2-phenylethynyl)phenyl]-6-isothiazol-3-yl-1,6-dimethyl-hexahydropyrimidine-2,4-dione]
- Emax: 152%
- EC50: 39 nM

SMILES: CN1C(=O)N(c2c(F)cc(C#Cc3ccc(F)cc3)cc2F)C(=O)C[C@@]1(C)c1cnn(C)c1 [Example 49, (6S)-3-[2,6-Difluoro-4-[2-(4-fluorophenyl)ethynyl]phenyl]-1,6-dimethyl-6-(1-methylpyrazol-4-yl)hexahydropyrimidine-2,4-dione]
- Emax: 142%
- EC50: 55 nM

SMILES: CN1C(=O)N(c2c(F)cc(C#Cc3ccc(F)cc3F)cc2F)C(=O)C[C@@]1(C)c1cnn(C)c1 [Example 58, (6S)-3-[4-[2-(2,4-Difluorophenyl)ethynyl]-2,6-difluoro-phenyl]-1,6-dimethyl-6-(1-methylpyrazol-4-yl)hexahydropyrimidine-2,4-dione]
- Emax: 139%
- EC50: 80 nM

SMILES: CN1C(=O)N(c2c(F)cc(C#Cc3ccccc3)cc2F)C(=O)C[C@@]1(C)c1cnn(C2CCOC2)c1 (mixture of isomers) [Example 62, (6S)-3-[2,6-Difluoro-4-(2-phenylethynyl)phenyl]-1,6-dimethyl-6-[1-[(3RS)-tetrahydrofuran-3-yl]pyrazol-4-yl]hexahydropyrimidine-2,4-dione]
- Emax: 128%
- EC50: 71 nM

SMILES: CN1C(=O)N(c2c(F)cc(C#Cc3cccc(F)c3)cc2F)C(=O)C[C@@]1(C)c1cnn(C)c1 [Example 47, (6S)-3-[2,6-Difluoro-4-[2-(3-fluorophenyl)ethynyl]phenyl]-1,6-dimethyl-6-(1-methylpyrazol-4-yl)hexahydropyrimidine-2,4-dione]
- Emax: 136%
- EC50: 71 nM

SMILES: Cc1ncc([C@]2(C)CC(=O)N(c3c(F)cc(C#Cc4ccccc4)cc3F)C(=O)N2C)s1 [Example 39, (6S)-3-[2,6-Difluoro-4-(2-phenylethynyl)phenyl]-1,6-dimethyl-6-(2-methylthiazol-5-yl)hexahydropyrimidine-2,4-dione]
- Emax: 148%
- EC50: 71 nM

SMILES: CN1C(=O)N(c2c(F)cc(C#Cc3ccccc3)cc2F)C(=O)C[C@@]1(C)c1cnn(C2CC2)c1 [Example 52, (6S)-6-(1-Cyclopropylpyrazol-4-yl)-3-[2,6-difluoro-4-(2-phenylethynyl)phenyl]-1,6-dimethyl-hexahydropyrimidine-2,4-dione]
- Emax: 127%
- EC50: 31 nM

SMILES: CN1C(=O)N(c2c(F)cc(C#Cc3cccc(F)c3F)cc2F)C(=O)C[C@@]1(C)c1cn[nH]c1 [Example 55, (6S)-3-[4-[2-(2,3-Difluorophenyl)ethynyl]-2,6-difluoro-phenyl]-1,6-dimethyl-6-(1H-pyrazol-4-yl)hexahydropyrimidine-2,4-dione]
- Emax: 134%
- EC50: 54 nM

SMILES: CN1C(=O)N(c2c(F)cc(C#Cc3ccccc3)cc2F)C(=O)C[C@@]1(C)c1cn(C)cn1 [Example 2, (6S)-3-[2,6-Difluoro-4-(2-phenylethynyl)phenyl]-1,6-dimethyl-6-(1-methylimidazol-4-yl)hexahydropyrimidine-2,4-dione]
- Emax: 109%
- EC50: 121 nM

SMILES: CN1C(=O)N(c2ccc(C#Cc3ccccc3)cc2Cl)C(=O)C[C@@]1(C)c1cnn(C)c1 [Example 37, (6S)-3-[2-Chloro-4-(2-phenylethynyl)phenyl]-1,6-dimethyl-6-(1-methylpyrazol-4-yl)hexahydropyrimidine-2,4-dione]
- Emax: 175%
- EC50: 112 nM

SMILES: COCCCn1ccc([C@]2(C)CC(=O)N(c3c(F)cc(C#Cc4ccccc4)cc3F)C(=O)N2C)n1 [Example 31, (6S)-3-[2,6-Difluoro-4-(2-phenylethynyl)phenyl]-6-[1-(3-methoxypropyl)pyrazol-3-yl]-1,6-dimethyl-hexahydropyrimidine-2,4-dione]
- Emax: 117%
- EC50: 23 nM
